Organism: Rattus norvegicus
Assay: Open TG-GATES - Regimen: Single
Assay type: toxicity, organism-based, Sprague-Dawley
Set-up: regimen Single, gender Male, age 6 weeks
Conditions: in vivo, po, 50 mg/kg, route gavage, dose level Low; for APTT / Bas / Eos / Fbg / Hb / Ht / Lym / MCH / MCHC / MCV / Mono / Neu / PT / Plat / RBC / Ret / WBC: tissue Blood; for KIDNEY_L / KIDNEY_R / KIDNEY_TOTAL: tissue Kidney; for LIVER: tissue Liver; for A/G / ALP / ALT / AST / BUN / CRE / Ca / Cl / DBIL / GLC / IP / K / LDH / Na / PL / RALB / TBIL / TC / TG / TP / gamma-GTP: tissue Plasma

For `CN1C(=O)CCS(=O)(=O)C1c1ccc(Cl)cc1` (configuration not stated) [CHLORMEZANONE], the TERMINAL_BW (3 h) was 228.4 g, the APTT (3 h) was 16.7 s and the Bas (3 h) was 0%. For the same molecule, the Eos (3 h) was 1%, the Fbg (3 h) was 319.2 mg/dL and the Hb (3 h) was 13.2 g/dL. For the same molecule, the Ht (3 h) was 39.3%, the Lym (3 h) was 73.8% and the MCH (3 h) was 21.6 pg. The MCHC (3 h) was 33.6%, the MCV (3 h) was 64.3 fL and the Mono (3 h) was 4%. It also gave a Neu (3 h) of 20.6%, a PT (3 h) of 13 s and a Plat (3 h) of 111.8 x10_4/uL. It also gave an RBC (3 h) of 611.6 x10_4/ul, a Ret (3 h) of 9.4% and a WBC (3 h) of 84.7 x10_2/uL. The KIDNEY_L (3 h) was 0.9 g, the KIDNEY_R (3 h) was 0.9 g and the KIDNEY_TOTAL (3 h) was 1.9 g. The LIVER (3 h) was 10.4 g, the A/G (3 h) was 0.9 and the ALP (3 h) was 1492 IU/L. The ALT (3 h) was 52.6 IU/L, the AST (3 h) was 80.2 IU/L and the BUN (3 h) was 8.8 mg/dL. It also gave a CRE (3 h) of 0.2 mg/dL, a Ca (3 h) of 11.6 mg/dL and a Cl (3 h) of 105.2 meq/L. For the same molecule, the DBIL (3 h) was 0.018 mg/dL, the GLC (3 h) was 187 mg/dL and the IP (3 h) was 9.6 mg/dL. It also gave a K (3 h) of 4 meq/L, an LDH (3 h) of 60.2 IU/L and a Na (3 h) of 141.6 meq/L. For the same molecule, the PL (3 h) was 155 mg/dL, the RALB (3 h) was 2.7 g/dL and the TBIL (3 h) was 0.046 mg/dL. The TC (3 h) was 83.6 mg/dL, the TG (3 h) was 75.4 mg/dL and the TP (3 h) was 5.7 g/dL. For the same molecule, the gamma-GTP (3 h) was 1 IU/L, the TERMINAL_BW (6 h) was 227.2 g and the APTT (6 h) was 15 s. For the same molecule, the Bas (6 h) was 0%, the Eos (6 h) was 0.8% and the Fbg (6 h) was 321.2 mg/dL. For the same molecule, the Hb (6 h) was 13.8 g/dL, the Ht (6 h) was 40.9% and the Lym (6 h) was 76.8%. It also gave an MCH (6 h) of 21.6 pg, an MCHC (6 h) of 33.7% and an MCV (6 h) of 64.2 fL. It also gave a Mono (6 h) of 3.4%, a Neu (6 h) of 18.2% and a PT (6 h) of 13.2 s. For the same molecule, the Plat (6 h) was 115.1 x10_4/uL, the RBC (6 h) was 637.2 x10_4/ul and the Ret (6 h) was 7.3%. It also gave a WBC (6 h) of 83.9 x10_2/uL, a KIDNEY_L (6 h) of 0.9 g and a KIDNEY_R (6 h) of 1 g. For the same molecule, the KIDNEY_TOTAL (6 h) was 1.9 g, the LIVER (6 h) was 9.5 g and the A/G (6 h) was 0.9. The ALP (6 h) was 1829.6 IU/L, the ALT (6 h) was 38.6 IU/L and the AST (6 h) was 71.4 IU/L. It also gave a BUN (6 h) of 8.8 mg/dL, a CRE (6 h) of 0.2 mg/dL and a Ca (6 h) of 11.6 mg/dL. It also gave a Cl (6 h) of 107 meq/L, a DBIL (6 h) of 0.016 mg/dL and a GLC (6 h) of 189.8 mg/dL. For the same molecule, the IP (6 h) was 10.3 mg/dL, the K (6 h) was 4.1 meq/L and the LDH (6 h) was 56.8 IU/L. It also gave a Na (6 h) of 143.2 meq/L, a PL (6 h) of 153 mg/dL and an RALB (6 h) of 2.7 g/dL. For the same molecule, the TBIL (6 h) was 0.038 mg/dL, the TC (6 h) was 78 mg/dL and the TG (6 h) was 68.4 mg/dL. It also gave a TP (6 h) of 5.7 g/dL, a gamma-GTP (6 h) of 1.2 IU/L and a TERMINAL_BW (9 h) of 227.8 g. It also gave an APTT (9 h) of 14.1 s, a Bas (9 h) of 0% and an Eos (9 h) of 0.8%. It also gave a Fbg (9 h) of 351 mg/dL, a Hb (9 h) of 13.4 g/dL and a Ht (9 h) of 39.3%. The Lym (9 h) was 77.8%, the MCH (9 h) was 22.3 pg and the MCHC (9 h) was 34.1%. For the same molecule, the MCV (9 h) was 65.5 fL, the Mono (9 h) was 2.2% and the Neu (9 h) was 18%. It also gave a PT (9 h) of 13.5 s, a Plat (9 h) of 121.2 x10_4/uL and an RBC (9 h) of 601.6 x10_4/ul. The Ret (9 h) was 8%, the WBC (9 h) was 76.9 x10_2/uL and the KIDNEY_L (9 h) was 1 g. It also gave a KIDNEY_R (9 h) of 0.9 g, a KIDNEY_TOTAL (9 h) of 1.9 g and an LIVER (9 h) of 9.2 g. It also gave an A/G (9 h) of 0.9, an ALP (9 h) of 1623.2 IU/L and an ALT (9 h) of 34.4 IU/L. For the same molecule, the AST (9 h) was 71.6 IU/L, the BUN (9 h) was 9.4 mg/dL and the CRE (9 h) was 0.2 mg/dL. For the same molecule, the Ca (9 h) was 11.2 mg/dL, the Cl (9 h) was 106.4 meq/L and the DBIL (9 h) was 0.02 mg/dL. The GLC (9 h) was 191.4 mg/dL, the IP (9 h) was 11.9 mg/dL and the K (9 h) was 4 meq/L. It also gave an LDH (9 h) of 57.6 IU/L, a Na (9 h) of 143.8 meq/L and a PL (9 h) of 121.4 mg/dL. For the same molecule, the RALB (9 h) was 2.6 g/dL, the TBIL (9 h) was 0.038 mg/dL and the TC (9 h) was 67.2 mg/dL. For the same molecule, the TG (9 h) was 50.4 mg/dL, the TP (9 h) was 5.5 g/dL and the gamma-GTP (9 h) was 1 IU/L. The TERMINAL_BW (24 h) was 234.7 g, the APTT (24 h) was 16.1 s and the Bas (24 h) was 0%. For the same molecule, the Eos (24 h) was 0.8%, the Fbg (24 h) was 278.2 mg/dL and the Hb (24 h) was 13.6 g/dL. The Ht (24 h) was 39.7%, the Lym (24 h) was 75% and the MCH (24 h) was 21.7 pg. For the same molecule, the MCHC (24 h) was 34.4%, the MCV (24 h) was 63.3 fL and the Mono (24 h) was 3.4%. It also gave a Neu (24 h) of 20.2%, a PT (24 h) of 13 s and a Plat (24 h) of 113.6 x10_4/uL. For the same molecule, the RBC (24 h) was 626.8 x10_4/ul, the Ret (24 h) was 7.6% and the WBC (24 h) was 72.4 x10_2/uL. It also gave a KIDNEY_L (24 h) of 1.1 g, a KIDNEY_R (24 h) of 1 g and a KIDNEY_TOTAL (24 h) of 2.1 g. The LIVER (24 h) was 11.3 g, the A/G (24 h) was 0.9 and the ALP (24 h) was 1615.6 IU/L. For the same molecule, the ALT (24 h) was 45 IU/L, the AST (24 h) was 77.4 IU/L and the BUN (24 h) was 14.8 mg/dL. It also gave a CRE (24 h) of 0.2 mg/dL, a Ca (24 h) of 11.1 mg/dL and a Cl (24 h) of 106.2 meq/L. For the same molecule, the DBIL (24 h) was 0.02 mg/dL, the GLC (24 h) was 182.2 mg/dL and the IP (24 h) was 7.4 mg/dL. For the same molecule, the K (24 h) was 4.2 meq/L, the LDH (24 h) was 83 IU/L and the Na (24 h) was 142 meq/L. It also gave a PL (24 h) of 137.8 mg/dL, an RALB (24 h) of 2.6 g/dL and a TBIL (24 h) of 0.024 mg/dL. The TC (24 h) was 80.4 mg/dL, the TG (24 h) was 92.4 mg/dL and the TP (24 h) was 5.6 g/dL. The gamma-GTP (24 h) was 1.2 IU/L.

From ChEMBL document CHEMBL3885861, “Open TG-GATES”
